Laboratory results: patent publication US20060100226A1, “2-Thiopyrimidinones as therapeutic agents” (priority 2004, published 2006)

Target: T1, murine MEKK2 (mMEKK2) (Mus musculus, UniProt Q61083)
T1 sequence (Q61083 1-619): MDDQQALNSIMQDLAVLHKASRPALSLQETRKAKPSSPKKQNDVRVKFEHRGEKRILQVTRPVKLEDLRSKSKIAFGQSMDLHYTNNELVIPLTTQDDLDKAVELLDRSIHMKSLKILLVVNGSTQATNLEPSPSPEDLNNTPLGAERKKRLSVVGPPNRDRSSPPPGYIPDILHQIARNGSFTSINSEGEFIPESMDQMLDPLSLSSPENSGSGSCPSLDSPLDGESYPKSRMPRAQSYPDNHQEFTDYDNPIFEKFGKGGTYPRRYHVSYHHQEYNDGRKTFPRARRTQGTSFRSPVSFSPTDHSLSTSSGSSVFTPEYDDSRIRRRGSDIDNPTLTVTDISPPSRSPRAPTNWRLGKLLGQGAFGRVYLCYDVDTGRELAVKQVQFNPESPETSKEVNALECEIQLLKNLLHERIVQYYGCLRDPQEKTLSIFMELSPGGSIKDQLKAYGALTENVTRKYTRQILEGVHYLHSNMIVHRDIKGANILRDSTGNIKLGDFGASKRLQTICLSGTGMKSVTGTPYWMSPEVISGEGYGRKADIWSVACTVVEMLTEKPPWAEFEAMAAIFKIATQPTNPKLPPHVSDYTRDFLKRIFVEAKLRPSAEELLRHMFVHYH
Assay: TR-FRET kinase assay (mMEKK2/MBP)
Format: biochemical
Conditions: substrate biotin MBP, 60 minutes at room temperature
Description: In one approach, MEKK2 inhibitory activity of compounds of the invention can be assessed using the time-resolved Fluorescence Resonance Energy Transfer (TR-FRET) assay detailed in Example 5. In this assay, the excitation energy of one fluorescent molecule (the donor) is transferred by a resonance mechanism to a nearby second fluorescent molecule (the acceptor), which then releases its fluorescent energy through fluorescent emission. This fluorescent energy is measured using a time-resolved fluorescence measurement protocol (LANCE high count 615/665); excitation occurred with 1,000 flashes at 325 nm, measurement was delayed by 100 μs, and data were acquired for 50 μs at 615 and 665 nm.
A TR-FRET kinase assay was used to screen potential inhibitors of MEKK2. The assay was performed as follows: Compounds to be tested were weighed and solubilized in DMSO (Sigma) to a stock concentration of 10 mM. Serial dilutions starting from 1 mM were prepared with additional DMSO. These dilutions were further diluted to 250 μM in kinase reaction buffer [20 mM Hepes pH 7.5, 5 mM MgCl2, 1 mM DTT (Dithiothreitol-Sigma), 1 mM NaVO4 (sodium vanadate-Sigma). A 25 μl aliquot of this solution was transferred to a black 96-well nonbinding surface microplate (Fisher). A stock aliquot containing […] of murine MEKK2 (mMEKK2) was diluted in the kinase reaction buffer and incubated with the compounds on the microplate for 10 minutes. A 25 μl aliquot of a 138 ng solution of biotin MBP (myelin basic protein—Upstate Biotechnology) was added to the reaction followed by 25 ul of a 25 ng solution of anti-phospho MBP antibody (Upstate Biotechnology) diluted in kinase reaction buffer. Finally an aliquot (50 μl) of a 5 uM solution of ATP (adenosine triphosphate) was added and the reaction was allowed to proceed for 60 minutes at room temperature. The reaction was stopped by the addition of 50 μL of a 12.5 ng solution of europium labeled anti-mouse IgG (Perkin Elmer) and 45 ng of Cy5 labeled streptavidin (Jackson Immunoresearch) in termination buffer (20 mM Hepes pH 7.5, 100 mM EDTA; Sigma). The assay was allowed to equilibrate for 45 minutes before placing the plate on the Victor™ plate reader. The plate was read using the 615/665 LANCE protocol.

| Compound | IC50 |
| --- | --- |
| COc1cccc(-c2nc(SCc3cccc(NCc4ccc(-c5cccs5)s4)c3)[nH]c(=O)c2C#N)c1 [Example 1aa] | < 1 µM |
| COc1cccc(-c2nc(SCc3cccc(NCc4cccc(Oc5ccccc5)c4)c3)[nH]c(=O)c2C#N)c1 [Example 1bb] | < 1 µM |
| COc1cccc(-c2nc(SCc3cccc(NCc4cccc(Oc5cccc(C(F)(F)F)c5)c4)c3)[nH]c(=O)c2C#N)c1 [Example 1dd] | < 1 µM |
| COc1cc(CNc2cccc(CSc3nc(-c4cccc(OC)c4)c(C#N)c(=O)[nH]3)c2)cc(OC)c1 [Example 1e] | < 20 µM |
| COc1cccc(-c2nc(SCc3cccc(NCc4coc5cc(C)cc(C)c5c4=O)c3)[nH]c(=O)c2C#N)c1 [Example 1f] | < 5 µM |
| COc1cccc(-c2nc(SCc3cccc(NCc4nc5ccccc5n4C)c3)[nH]c(=O)c2C#N)c1 [Example 1g] | < 40 µM |
| COc1cccc(-c2nc(SCc3cccc(NCc4ccccc4N4CCOCC4)c3)[nH]c(=O)c2C#N)c1 [Example 1h] | < 5 µM |
| COc1cccc(-c2nc(SCc3cccc(NCc4ccc(N5CCCCC5)cc4)c3)[nH]c(=O)c2C#N)c1 [Example 1i] | < 10 µM |
| COc1cccc(-c2nc(SCc3cccc(NC[C@H]4CCCN4C(=O)OC(C)(C)C)c3)[nH]c(=O)c2C#N)c1 [Example 1j] | < 20 µM |
| COc1cccc(-c2nc(SCc3cccc(NCc4cccn4CCC#N)c3)[nH]c(=O)c2C#N)c1 [Example 1l] | < 20 µM |
| COc1cccc(-c2nc(SCc3cccc(NCc4ccc(Oc5cnccn5)cc4)c3)[nH]c(=O)c2C#N)c1 [Example 1m] | < 20 µM |
| COc1cccc(-c2nc(SCc3cccc(NCc4ccc(OC)nc4)c3)[nH]c(=O)c2C#N)c1 [Example 1n] | < 40 µM |
| COc1cccc(-c2nc(SCc3cccc(NCC4CCOCC4)c3)[nH]c(=O)c2C#N)c1 [Example 1o] | > 40 µM |
| COc1cccc(-c2nc(SCc3cccc(NCc4ccc(-c5cc(C(F)(F)F)n(C)n5)s4)c3)[nH]c(=O)c2C#N)c1 [Example 1q] | < 1 µM |
| COc1cccc(-c2nc(SCc3cccc(NCc4ccc(-n5ccnc5)cc4)c3)[nH]c(=O)c2C#N)c1 [Example 1r] | < 20 µM |
| COc1cccc(-c2nc(SCc3cccc(NCc4c(C(F)(F)F)nn(C)c4Cl)c3)[nH]c(=O)c2C#N)c1 [Example 1s] | < 10 µM |
| COc1cccc(-c2nc(SCc3cccc(NCc4ccc(N(C)C)c(C#N)c4F)c3)[nH]c(=O)c2C#N)c1 [Example 1t] | < 5 µM |
| COc1cccc(-c2nc(SCc3cccc(NCc4ccc(C#N)cc4)c3)[nH]c(=O)c2C#N)c1 [Example 1u] | < 10 µM |
| COc1cccc(-c2nc(SCc3cccc(NCc4cc(C)c(C)o4)c3)[nH]c(=O)c2C#N)c1 [Example 1w] | < 5 µM |
| COc1cccc(-c2nc(SCc3cccc(NCc4c[nH]c5ccc(Cl)cc45)c3)[nH]c(=O)c2C#N)c1 [Example 1x] | < 1 µM |
| COc1cccc(-c2nc(SCc3cccc(NCc4ccc5nsnc5c4)c3)[nH]c(=O)c2C#N)c1 [Example 1y] | < 10 µM |
| COc1cccc(-c2nc(SCc3cccc(NCc4cnc(N(C)C)nc4)c3)[nH]c(=O)c2C#N)c1 [Example 1z] | < 40 µM |
| COc1cccc(-c2nc(SCc3cccc(NC(=O)c4cccc(Cl)c4)c3)[nH]c(=O)c2C#N)c1 [Example 2a, 3-Chloro-N-{3-[5-cyano-4-(3-methoxy-phenyl)-6-oxo-1,6-dihydro-pyrimidin-2-ylsulfanylmethyl]-phenyl}-benzamide] | < 5 µM |
| COc1cccc(-c2nc(SCc3ccc(NC(=O)c4sccc4Cl)cc3)[nH]c(=O)c2C#N)c1 [Example 2aaa] | < 5 µM |
| COc1cccc(-c2nc(SCc3cccc(NC(=O)c4ccc(C)cc4)c3)[nH]c(=O)c2C#N)c1 [Example 2b] | < 5 µM |
| CCCc1c(C(=O)Nc2ccc(CSc3nc(-c4cccc(OC)c4)c(C#N)c(=O)[nH]3)cc2)cnn1-c1ccc(Cl)cc1 [Example 2bbb] | < 1 µM |
| COc1cccc(-c2nc(SCc3cccc(NC(=O)c4ccccc4)c3)[nH]c(=O)c2C#N)c1 [Example 2c] | < 5 µM |

| Compound | IC50 |
| --- | --- |
| COc1cccc(-c2nc(SCc3cccc(NC(=O)c4ccc5ccccc5c4)c3)[nH]c(=O)c2C#N)c1 [Example 2d] | < 5 µM |
| COc1cccc(-c2nc(SCc3ccc(NC(=O)c4cccc(OC(F)(F)F)c4)cc3)[nH]c(=O)c2C#N)c1 [Example 2ddd] | < 5 µM |
| COc1cccc(-c2nc(SCc3cccc(NC(=O)CCc4ccccc4)c3)[nH]c(=O)c2C#N)c1 [Example 2e] | < 5 µM |
| COc1cccc(-c2nc(SCc3ccc(NC(=O)c4cc(C(F)(F)F)cc(Cl)c4F)cc3)[nH]c(=O)c2C#N)c1 [Example 2eee] | < 5 µM |
| COc1cccc(CC(=O)Nc2cccc(CSc3nc(-c4cccc(OC)c4)c(C#N)c(=O)[nH]3)c2)c1 [Example 2f] | < 10 µM |
| COc1cccc(-c2nc(SCc3ccc(NC(=O)c4cnn(-c5ccccc5)c4C(F)(F)F)cc3)[nH]c(=O)c2C#N)c1 [Example 2fff] | < 5 µM |
| COc1cccc(-c2nc(SCc3cccc(NC(=O)c4cccc(C(F)(F)F)c4)c3)[nH]c(=O)c2C#N)c1 [Example 2g] | < 5 µM |
| COc1cccc(-c2nc(SCc3ccc(NC(=O)c4ccc(C(F)(F)F)cc4C(F)(F)F)cc3)[nH]c(=O)c2C#N)c1 [Example 2ggg] | < 5 µM |
| COc1cccc(-c2nc(SCc3ccc(NC(=O)c4snnc4C)cc3)[nH]c(=O)c2C#N)c1 [Example 2hhh] | < 40 µM |
| COc1cccc(-c2nc(SCc3ccc(NC(=O)C4=Cc5cc(Cl)ccc5OC4)cc3)[nH]c(=O)c2C#N)c1 [Example 2iii] | < 5 µM |
| COc1cccc(-c2nc(SCc3cccc(NC(=O)COc4ccc(Cl)cc4)c3)[nH]c(=O)c2C#N)c1 [Example 2j] | < 5 µM |
| COc1cccc(-c2nc(SCc3ccc(NC(=O)C4CCN(C(C)=O)CC4)cc3)[nH]c(=O)c2C#N)c1 [Example 2jjj] | < 20 µM |
| COc1cccc(-c2nc(SCc3cccc(NC(=O)Cc4ccccc4)c3)[nH]c(=O)c2C#N)c1 [Example 2k] | < 10 µM |
| COc1cccc(-c2nc(SCc3ccc(NC(=O)c4cc(C(F)(F)F)cc(C(F)(F)F)c4)cc3)[nH]c(=O)c2C#N)c1 [Example 2kkk] | < 5 µM |
| COc1cccc(-c2nc(SCc3cccc(NC(=O)Cc4ccc(Cl)cc4)c3)[nH]c(=O)c2C#N)c1 [Example 2l] | < 5 µM |
| COc1cccc(-c2nc(SCc3ccc(NC(=O)c4ccc(-c5ccccn5)s4)cc3)[nH]c(=O)c2C#N)c1 [Example 2lll] | < 5 µM |
| COc1cccc(-c2nc(SCc3cccc(NC(=O)c4cc5ccccc5s4)c3)[nH]c(=O)c2C#N)c1 [Example 2m] | < 5 µM |
| COc1cccc(-c2nc(SCc3ccccc3NC(=O)Cc3ccccc3)[nH]c(=O)c2C#N)c1 [Example 2mmm] | < 40 µM |
| COc1cccc(-c2nc(SCc3ccccc3NC(=O)c3ccccc3)[nH]c(=O)c2C#N)c1 [Example 2nnn] | < 40 µM |
| COc1cccc(-c2nc(SCc3cccc(NC(=O)c4ccc5c(c4)OCO5)c3)[nH]c(=O)c2C#N)c1 [Example 2o] | < 5 µM |
| COc1cccc(-c2nc(SCc3ccccc3NC(=O)c3cccc(C(F)(F)F)c3)[nH]c(=O)c2C#N)c1 [Example 2ooo] | > 40 µM |
| COc1cccc(-c2nc(SCc3cccc(NC(=O)c4cc(Cl)cc(Cl)c4)c3)[nH]c(=O)c2C#N)c1 [Example 2p] | < 5 µM |
| COc1cccc(-c2nc(SCc3ccc(NC(=O)c4ccccc4)cc3)[nH]c(=O)c2C#N)c1 [Example 2pp] | < 20 µM |
| COc1cccc(-c2nc(SCc3cccc(NC(=O)c4cc(C(C)(C)C)nn4C)c3)[nH]c(=O)c2C#N)c1 [Example 2q] | < 5 µM |
| COc1cccc(-c2nc(SCc3ccc(NC(=O)c4ccc(OC(F)(F)F)cc4)cc3)[nH]c(=O)c2C#N)c1 [Example 2qq] | < 5 µM |
| COc1cccc(-c2nc(SCc3cccc(NC(=O)c4cc(C)on4)c3)[nH]c(=O)c2C#N)c1 [Example 2r] | < 20 µM |
